Experimental data as given in patent publication US20220387365A1, “TUCARESOL DERIVATIVES AND USES THEREOF” (BeyondSpring Pharmaceuticals, Inc., priority 2019, published 2022).
Several values for one entry are separate records, joined by “and”; a condition that tells them apart may be missing. Identical values can stand only once. Like-named read-outs stand apart in the source and are kept apart here. Marks after values point to notes of the source that are not given here.

Experiments:
[1] = Pharmacokinetics of tucaresol after a single dose in healthy subjects
[2] = Intravenous and oral dosing pharmacokinetic screen, plasma concentration by LC/MS/MS; parameters: species or system C57BL/6 mice; settings: male, C57BL/6, mouse, in vivo
Method: Tucaresol, Compound B02, Compound C01, Compound C02-1, and Compound C02 were dosed once, by IV bolus (3 mg/kg in 20% hydroxyprophyl-13-cyclodextrin with 1 eq NaOH) or PO (10 mg/kg in 1% carboxymethylcellulose/0.1% tween-80 in water), to non-fasted male C57BL/6 mice. Animals were bled from the dorsal metatarsal vein (from the heart for 24 hour time point) for K2-EDTA plasma 0.083 (for IV only), 0.25, 0.5, 1, 2, 4, 8, and 24 hours after dosing. The plasma concentration of the dosed tucaresol or compound were measured by LC/MS/MS (I-CMS-8060 instrument for MS). PK parameters were then calculated with WinNonlin 6.1. For Compounds C01, CO2 and CO2-1, stability in C57BL/6 K2EDTA plasma was also evaluated at 22° C. over 1 hour by utilizing LC.

[3] = plasma, single dose 400 mg, single subjects
[4] = plasma, single dose 800 mg, single subjects
[5] = plasma, single dose 1200 mg, single subjects
[6] = plasma, single dose 2000 mg, single subjects
[7] = plasma, single dose 2800 mg, single subjects
[8] = plasma, single dose 3600 mg, single subjects
[9] = iv, 3 mg/kg, Tucaresol concentration
[10] = iv, 3 mg/kg, Tucaresol concentration, Mean
[11] = po, 10 mg/kg, Tucaresol concentration
[12] = po, 10 mg/kg, Tucaresol concentration, Mean

## O=Cc1c(O)cccc1OCc1ccc(C(=O)O)cc1 [Tucaresol]
[1]; human, in vivo, 2000 mg
  half-life: 222 h
[1]; human, in vivo, 2800 mg
  Tmax: 7.5 h
  half-life: 223 h
[1]; human, plasma, 200 mg, Cmax, single dose 200 mg, single subjects
  Cmax: 9900 ng/mL
[1]; human, plasma, 200 mg, tmax, single dose 200 mg, single subjects
  Tmax: 5 h
[1]; human, plasma, 400 mg, AUC, single dose 400 mg, single subjects
  AUC: 2830 µg·h/mL
[1]; human, plasma, 400 mg, Cmax, single dose 400 mg, single subjects
  Cmax: 16600 ng/mL
[1]; human, plasma, 400 mg, t1/2,z, single dose 400 mg, single subjects
  half-life: 133 h
[1]; human, plasma, 400 mg, tmax, single dose 400 mg, single subjects
  Tmax: 4.03 h
[1]; human, plasma, 800 mg, AUC, single dose 800 mg, single subjects
  AUC: 4890 µg·h/mL
[1]; human, plasma, 800 mg, Cmax, single dose 800 mg, single subjects
  Cmax: 28300 ng/mL
[1]; human, plasma, 800 mg, t1/2,z, single dose 800 mg, single subjects
  half-life: 134 h
[1]; human, plasma, 800 mg, tmax, single dose 800 mg, single subjects
  Tmax: 4 h
[1]; human, plasma, 1200 mg, AUC, Mean, single dose 1200 mg
  AUC: 8860 µg·h/mL
[1]; human, plasma, 1200 mg, Cmax, Mean, single dose 1200 mg
  Cmax: 38400 ng/mL
[1]; human, plasma, 1200 mg, Cmax, single dose 1200 mg, single subjects
  Cmax: 40400 ng/mL
[1]; human, plasma, 1200 mg, t1/2,z, Mean, single dose 1200 mg
  half-life: 195 h
[1]; human, plasma, 1200 mg, tmax, Mean, single dose 1200 mg
  Tmax: 6.5 h
[1]; human, plasma, 1200 mg, tmax, single dose 1200 mg, single subjects
  Tmax: 8 h
[1]; human, plasma, 2000 mg, AUC, Mean, single dose 2000 mg
  AUC: 14800 µg·h/mL
[1]; human, plasma, 2000 mg, AUC, single dose 2000 mg, single subjects
  AUC: 16300 µg·h/mL
[1]; human, plasma, 2000 mg, Cmax, Mean, single dose 2000 mg
  Cmax: 58600 ng/mL
[1]; human, plasma, 2000 mg, Cmax, single dose 2000 mg, single subjects
  Cmax: 60800 ng/mL
[1]; human, plasma, 2000 mg, t1/2,z, Mean, single dose 2000 mg
  half-life: 229 h
[1]; human, plasma, 2000 mg, t1/2,z, single dose 2000 mg, single subjects
  half-life: 278 h
[1]; human, plasma, 2000 mg, tmax, Mean, single dose 2000 mg
  Tmax: 5.5 h
[1]; human, plasma, 2000 mg, tmax, single dose 2000 mg, single subjects
  Tmax: 6 h
[1]; human, plasma, 2800 mg, AUC, Mean, single dose 2800 mg
  AUC: 16900 µg·h/mL
[1]; human, plasma, 2800 mg, AUC, single dose 2800 mg, single subjects
  AUC: 12900 µg·h/mL
[1]; human, plasma, 2800 mg, Cmax, Mean, single dose 2800 mg
  Cmax: 73700 ng/mL
[1]; human, plasma, 2800 mg, Cmax, single dose 2800 mg, single subjects
  Cmax: 56600 ng/mL
[1]; human, plasma, 2800 mg, t1/2,z, single dose 2800 mg, single subjects
  half-life: 232 h
[1]; human, plasma, 2800 mg, tmax, single dose 2800 mg, single subjects
  Tmax: 6 h
[1]; human, plasma, 3600 mg, AUC, Mean, single dose 3600 mg
  AUC: 26600 µg·h/mL
[1]; human, plasma, 3600 mg, AUC, single dose 3600 mg, single subjects
  AUC: 25400 µg·h/mL
[1]; human, plasma, 3600 mg, Cmax, Mean, single dose 3600 mg
  Cmax: 95800 ng/mL
[1]; human, plasma, 3600 mg, Cmax, single dose 3600 mg, single subjects
  Cmax: 81700 ng/mL
[1]; human, plasma, 3600 mg, t1/2,z, Mean, single dose 3600 mg
  half-life: 289 h
[1]; human, plasma, 3600 mg, t1/2,z, single dose 3600 mg, single subjects
  half-life: 291 h
[1]; human, plasma, 3600 mg, tmax, Mean, single dose 3600 mg
  Tmax: 10 h
[1]; human, plasma, 3600 mg, tmax, single dose 3600 mg, single subjects
  Tmax: 6.08 h
[1]; plasma, single dose 200 mg, single subjects
  Cmax: 11100 ng/mL
[1]; [3]
  AUC: 3562 µg·h/mL
  CL0: 2.35 mL/min and 1.86 mL/min
  Cmax: 19600 ng/mL
  Tmax: 3.00 h
  t1/2,z: 190 h
[1]; [4]
  AUC: 5759 µg·h/mL
  CL0: 2.72 mL/min and 2.31 mL/min
  Cmax: 36500 ng/mL
  Tmax: 4.08 h
  t1/2,z: 126 h
[1]; plasma, single dose 1200 mg
  CL0, Mean: 2.40 mL/min
[1]; [5]
  AUC: 12103 µg·h/mL and 9180 µg·h/mL and 5987 µg·h/mL and 8161 µg·h/mL
  CL0: 1.65 mL/min and 2.17 mL/min and 3.33 mL/min and 2.44 mL/min
  Cmax: 40100 ng/mL and 39300 ng/mL and 33700 ng/mL
  t1/2,z: 252 h and 192 h and 123 h and 215 h
[1]; plasma, single dose 2000 mg
  CL0, Mean: 2.27 mL/min
[1]; [6]
  AUC: 16487 µg·h/mL and 14010 µg·h/mL and 12455 µg·h/mL
  CL0: 2.04 mL/min and 2.01 mL/min and 2.37 mL/min and 2.67 mL/min
  Cmax: 59300 ng/mL and 57100 ng/mL
  t1/2,z: 207 h and 209 h
[1]; plasma, single dose 2800 mg
  CL0, Mean: 2.85 mL/min
[1]; [7]
  AUC: 20871 µg·h/mL and 15635 µg·h/mL and 18018 µg·h/mL
  CL0: 3.61 mL/min and 2.23 mL/min and 2.97 mL/min and 2.58 mL/min
  Cmax: 87700 ng/mL and 91400 ng/mL and 59300 ng/mL
  Tmax: 12.00 h
  t1/2,z: 240 h and 178 h and 241 h
[1]; plasma, single dose 3600 mg
  CL0, Mean: 2.26 mL/min
[1]; [8]
  AUC: 27818 µg·h/mL and 24131 µg·h/mL and 29116 µg·h/mL
  CL0: 2.36 mL/min and 2.15 mL/min and 2.48 mL/min and 2.05 mL/min
  Cmax: 86300 ng/mL and 80300 ng/mL and 134700 ng/mL
  t1/2,z: 329 h and 265 h and 268 h
[2]
  AUClast/D: 825 ng·h/mL per mg/kg
  F: 75.0%
  T1/2: 4.67 h
  Tmax: 0.250 h
[2]; [9]
  concentration at 0.083 h: 1360 ng/mL
  concentration at 0.25 h: 1240 ng/mL
  concentration at 0.5 h: 972 ng/mL
  concentration at 1 h: 623 ng/mL
  concentration at 2 h: 473 ng/mL
  concentration at 4 h: 122 ng/mL
  concentration at 8 h: 73.6 ng/mL
  concentration at 24 h: 12 ng/mL
[2]; [10]
  concentration at 0.083 h: 1890 ng/mL
  concentration at 0.25 h: 1330 ng/mL
  concentration at 0.5 h: 985 ng/mL
  concentration at 1 h: 707 ng/mL
  concentration at 2 h: 421 ng/mL
  concentration at 4 h: 115 ng/mL
  concentration at 8 h: 73.4 ng/mL
  concentration at 24 h: 9.5 ng/mL
[2]; po, 10 mg/kg, 8 h
  Tucaresol concentration: 164* ng/mL
[2]; [11]
  concentration at 0.25 h: 2930 ng/mL
  concentration at 0.5 h: 2770 ng/mL
  concentration at 1 h: 1870 ng/mL
  concentration at 2 h: 822 ng/mL
  concentration at 4 h: 603 ng/mL
  concentration at 8 h: 185 ng/mL
  concentration at 24 h: 26.3 ng/mL
[2]; [12]
  concentration at 0.25 h: 3040 ng/mL
  concentration at 0.5 h: 2410 ng/mL
  concentration at 1 h: 1750 ng/mL
  concentration at 2 h: 881 ng/mL
  concentration at 4 h: 614 ng/mL
  concentration at 8 h: 190 ng/mL
  concentration at 24 h: 26 ng/mL
[2]; Tucaresol PO 10 mg/kg, 8 h, single mice, read-out: Tucaresol concentration
  concentration at 8 h: 222 ng/mL
